{
  "source": "patent US12274684B2",
  "about": "“Treatment of vasculopathy with prostacyclin and mesenchymal stem cells” (United Therapeutics Corporation, priority 2013, dated 2025)",
  "key": {"human bone marrow MSC [1]": {"tested_on": "human bone marrow MSC", "assay": "VEGF-A gene expression in MSC by qRT-PCR", "format": "cell-based", "description": "Conditioned media was assayed for VEGF by ELISA after 24 hours of treprostinil exposure (n=4 replicates). Cells from those replicates were lysed, and RNA was extracted to determine VEGF-A gene expression by qRT-PCR. Cells from the remaining two (2) replicates were trypsinized, and assayed for cell viability by trypan blue exclusion. Cell culture supernatant was assayed for VEGF protein by ELISA (FIG. 3A, n=4). Cell lysates from those cultures were assayed for VEGF-A gene expression by qRT-PCR, and normalized to the control value (FIG. 3B, n=4). In both figures, error bars represent the standard deviation in each test group. To characterize the effect of treprostinil on MSC, cells were analyzed by qRT-PCR and microarray to identify changes in gene expression (4). Cell culture supernatant media was assayed for selected inflammatory cytokines by bead-based immunoassays (2). Secreted vesicles were isolated from cell culture supernatant, and assayed for RNA content by qRT-PCR (7). Vesicles were also assayed for size and concentration by tunable resistive pulse sensing, or TRPS (7) (refer to Example 4)."}, "human bone marrow MSC [2]": {"tested_on": "human bone marrow MSC", "assay": "RNA content of MSC-derived exosomes by qRT-PCR", "format": "cell-based", "conditions": "250 μg/mL", "description": "After 24 hours of culture, representative images were captured from (+) Tre and (−) Tre cultures. Conditioned media was collected from each replicate, divided into two samples of appropriate volumes, and analyzed separately for: 1) secreted proteins (Myriad RBM InflammationMAP® 1.0) and 2) exosome RNA content. Cells were lysed directly from culture flasks, processed for total RNA isolation, and analyzed for gene expression by microarray (Illumina Human HT12 Expression BeadChip). To characterize the effect of treprostinil on MSC, cells were analyzed by qRT-PCR and microarray to identify changes in gene expression (4). Cell culture supernatant media was assayed for selected inflammatory cytokines by bead-based immunoassays (2). Secreted vesicles were isolated from cell culture supernatant, and assayed for RNA content by qRT-PCR (7). Vesicles were also assayed for size and concentration by tunable resistive pulse sensing, or TRPS (7) (refer to Example 4). Total RNA was extracted from exosomal preparations, and qRT-PCR was performed with the same primer/probe sets used in experiments with the parent cells (refer to FIG. 8). VEGF-A gene transcripts present in MSC-derived exosomes were increased ˜4-fold as a result of treprostinil exposure (FIG. 10)."}, "[3]": {"conditions": "24 h (FIG. 8, lower panel), p<0.05"}},
  "data": [
    {"molecule": "CCCCC[C@H](O)CC[C@@H]1[C@H]2Cc3cccc(OCC(=O)O)c3C[C@H]2C[C@H]1O", "note": "[treprostinil]", "values": [
      {"measurement": "VEGF-A gene expression vs untreated controls", "setting": "human bone marrow MSC [1]; 100 μg/mL, 24 h", "value": "not significantly different from untreated controls"},
      {"measurement": "VEGF-A gene expression, fold increase", "setting": "human bone marrow MSC [1]; 200 μg/mL, 24 h", "value": "over 5 fold"},
      {"measurement": "VEGF-A expression, fold over untreated controls (qRT-PCR)", "setting": "human bone marrow MSC [1]; 250 μg/mL, 24 h (FIG. 8, upper panel)", "value": "~3.5", "unit": "fold"},
      {"measurement": "let-7b abundance vs controls", "setting": "human bone marrow MSC [2]; [3]", "value": "less prevalent"},
      {"measurement": "miR-21 abundance vs controls", "setting": "human bone marrow MSC [2]; [3]", "value": "more abundant"},
      {"measurement": "VEGF-A gene transcripts in MSC-derived exosomes, fold increase", "setting": "human bone marrow MSC [2]; 24 h (FIG. 10)", "value": "~4", "unit": "fold"},
      {"measurement": "miR-21 in MSC-derived exosomes", "setting": "human bone marrow MSC [2]; 24 h (FIG. 10), p<0.05", "value": "significantly more abundant"},
      {"measurement": "miR-199-3p in MSC-derived exosomes", "setting": "human bone marrow MSC [2]; 24 h (FIG. 10), p<0.05", "value": "significantly more abundant"}
    ]}
  ]
}
